Experimental data published in ChEMBL document CHEMBL1157539, “Thousands of chemical starting points for antimalarial lead identification” (Nature, 2010).

Each molecule was assayed on Plasmodium falciparum (assay: GSK_TCMDC: Inhibition of Plasmodium falciparum 3D7 in whole erythrocytes, using parasite LDH activity as an index of growth.). Conditions: Plasmodium falciparum, 3D7.
Format: functional, organism-based

Structure (SMILES) | XC50 [nM]
CN(C)Cc1ccc(-c2cc3c(Nc4ccc(OCc5cccc(F)c5)c(Cl)c4)ncnc3s2)[nH]1 | 824
COc1cc(-c2nc(-c3ccc(C(=O)c4ccc(F)cc4)cc3)c(-c3ccccc3)[nH]2)cc(OC)c1O | 659
Clc1ccc(-c2cc(-c3csc(Nc4ccncc4)n3)on2)cc1 | 133
Nc1nc(N)c2c(ccc3c2ccn3C2CCCCC2)n1 | 123
Cc1cc(N(C)C)nc(Nc2ccc(NC(=O)c3c(F)cccc3F)cc2)n1 | 1380
CCOc1ccc(C(=O)Nc2cc(Cl)ccc2O)cc1Cl | 705
O=C(N[C@H](Cc1ccc(Cl)cc1)C(=O)N1CCN(c2ccnc3cc(Cl)ccc23)CC1)[C@H]1Cc2ccccc2CN1 | 424
CC(C)Cn1c(Sc2ccc(C#N)c([N+](=O)[O-])c2)nnc1-c1cccs1 | 1080
OC(Cn1ccnc1)(c1ccc(Cl)cc1Cl)C1CCCCC1 (configuration not stated) | 984
CC(Cc1ccc(C(=O)OC(c2ccccc2)c2ccccc2)cc1)NCC(O)c1ccccc1 (configuration not stated) | 178
CN(C)S(=O)(=O)c1cc(-c2ccc3nccc(-c4cccc(S(N)(=O)=O)c4)c3c2)cnc1N | 251
CC1(C)CCNc2cc(NC(=O)c3ccc(-c4ncccc4C(F)(F)F)cc3)ccc21 | 903
CCOC(=O)C(C#N)NC(=O)C=Cc1ccccc1 (configuration not stated) | 804
CC(=O)Nc1ncc(C(=O)Nc2cccc(-c3ccc(-c4nc5cc(C(F)(F)F)ccc5[nH]4)cc3)c2)s1 | 590
N#Cc1ccc(-c2ccc(OCC(O)CN3CCCN(Cc4cccc(O)c4Cl)CC3)cc2)cc1 (configuration not stated) | 690
O=C(C=Cc1ccc(Cl)c(Cl)c1)NCCCCCN1CCC(CCNC(=O)C(c2ccccc2)c2ccccc2)CC1 | 1010
O=C(/C=C/c1ccc(-c2ccccc2)cc1)NCCCCCN1CCC(c2c[nH]c3ccccc23)CC1 | 854
CC(NC(C)(C)C)C(O)c1ccc(Cl)c(C(F)(F)F)c1 (configuration not stated) | 742
N#Cc1cccc(CNC(=O)c2cccc(Nc3ccnc4ccc(F)cc34)c2)c1 | 987
CCCCc1ccc(NC(=O)Nc2cccc(CCNCc3ccccc3)c2)cc1 | 881
COc1ccc(Nc2ncc3c(-c4cccc(NC(=O)c5ccccc5)c4)c[nH]c3n2)cc1OC | 461
Cc1[nH]c(C)c(-c2ccc(-c3cccc(Cl)c3)nc2)c(=O)c1Cl | 186
O=C1COc2ccccc2N1CCN1CCC(NCc2ccc(-c3cccs3)cc2)CC1 | 1430
COc1cc(NC(=O)c2cc([N+](=O)[O-])ccc2NC(=O)CNC2CCCCC2C)cc(OC)c1 (configuration not stated) | 1730
N#Cc1ccc(OCCN(Cc2ccccc2C(F)(F)F)c2ccc(C#N)c(C(F)(F)F)c2)cc1 | 277

Structure (SMILES) | XC50 [nM]
CCc1cn(CCc2ccccc2)c2ccc(C(=O)N[C@@H](Cc3ccccc3)[C@H](O)CNC(C)(C)CCCC(C)C)cc12 | 219
COc1cc(Nc2ncc3c(C)nc(-c4cccc(Nc5ccc(CN6CCS(=O)(=O)CC6)cc5)c4)n3n2)cc(OC)c1OC | 865
CCCCN1C(=O)C2CC(=O)CC(C3CCCCC3)C2C1=O (configuration not stated) | 888
CCOC(=O)NOC(C(=O)O)c1ccccc1 (configuration not stated) | 189
CC1CN(Cc2cccc(-c3ccc(-c4nc5ccccc5[nH]4)cc3)c2)CC(C)O1 (configuration not stated) | 857
O=C(Nc1cccc(-c2csc(-c3nc4ccccc4[nH]3)c2)c1)c1cc(=O)c2ccccc2[nH]1 | 232
CN(C)CCOc1ccc(-c2cc(-c3ccncc3)c(-c3ccc(Cl)c(O)c3)[nH]2)cc1 | 224
CN(C)CCCn1cncc1-c1ccc2ncnc(Nc3ccc4c(cnn4Cc4ccccc4)c3)c2c1 | 726
O=C(c1cc(-c2cccs2)n[nH]1)N1CCN(S(=O)(=O)c2ccc(Br)cc2)CC1 | 357
Cc1cc(Cl)c(S(=O)(=O)NC(C)(C)C)cc1OCC(=O)NC1CCCCC1 | 548
O=C(Nc1ccccc1Br)N[C@@H]1CCN(c2ccnc3ccccc23)C1 | 935
Nc1ccc(-c2ccc3ccnc(N)c3c2)cn1 | 353
COc1ccc(-c2cccc(NC(=O)c3cccc(Cl)c3)c2)cc1CN1CCCC1 | 731
O=C(Nc1ccc2c(c1)OCO2)c1cc(-c2cccnc2)cnc1NCc1ccc2c(c1)OCO2 | 1190
O=C(Nc1cccc(-c2cccc(-c3nc4cc(C(F)(F)F)ccc4[nH]3)c2)c1)c1cccnc1 | 404
CCN(CC)CCCN(C(=O)c1cc2c(C)nn(-c3ccccc3)c2s1)c1nc(-c2ccc(OC)cc2)cs1 | 1150
Cc1nc(-c2ccc(-c3ccc(NC(=O)Nc4ccc(I)c(OCCN(C)C)c4)cc3)c(C)c2)no1 | 372
Cc1cccc(-c2nn(-c3ccccc3)c3[nH]c(=O)c(CN4CCSCC4)cc23)c1 | 1010
FC(F)(F)c1ccc2[nH]c(-c3ccc(-c4ccc(CNCc5cnn(-c6ccccc6)n5)cc4)s3)nc2c1 | 456
CCc1cn2c3c(cc(C(=O)N[C@@H](Cc4ccccc4)[C@H](O)CNC4CCC4)cc13)N(C)S(=O)(=O)CC2 | 99
CCCCCCC(N)c1ccc(OCCCOc2ccc(C(N)CCCCCC)cc2)cc1 (configuration not stated) | 1140
Nc1nc(Nc2ccc(Cl)cc2)nc2ccccc12 | 732
COc1cc(OC)cc(C(=O)Nc2ccc(Nc3nc(C)cc(N(C)C)n3)cc2)c1 | 646
COc1ccc2c(=NN=Cc3cccc(F)c3)cc(C)[nH]c2c1 | 777
Cc1ccccc1C1CCN(C2CCC(NC(=O)c3ccc(-c4ccccc4F)o3)CC2)CC1 (configuration not stated) | 1050

Structure (SMILES) | XC50 [nM]
CCOc1ccc(C(=O)Nc2cc(Br)c3c(c2)CNCC3)cc1C#N | 765
COc1ccccc1-c1nc2nc(N)nc(N)c2nc1-c1ccccc1OC | 1250
COc1ccc(CNCc2ccccc2)cc1-c1ccc(S(=O)(=O)NCCN2CCCC2)c(F)c1 | 1140
CC(C)(C)Cn1cc(-c2ccc(C(=O)NCCc3ccc(S(C)(=O)=O)cc3)cc2)c(N)n1.CC(C)(C)Cn1ncc(-c2ccc(C(=O)NCCc3ccc(S(C)(=O)=O)cc3)cc2)c1N | 647
c1cc(C2=NC3CCCCC3N2)ccc1OCCCOc1ccc(C2=NC3CCCCC3N2)cc1 (configuration not stated) | 731
Cc1ccc(C2CC(=O)CC(c3ccccn3)C2[N+](=O)[O-])cc1 (configuration not stated) | 859
CC(=O)N(C)c1cccc(C(=O)Nc2ccc(-c3cccc(-c4nc5cccc(C)c5[nH]4)c3)cc2)c1 | 651
O=C(Nc1ccc2c(c1)OCCO2)c1cc(-c2cccnc2)nc2ccc(Cl)cc12 | 714
CCCNCc1ccc(-c2ccc(CN(CCOC)C(=O)Cc3cccnc3)cc2)nc1 | 823
Cc1ccccc1C1CCN(C2CCC(NC(=O)c3csc(-c4cccc(Cl)c4)n3)CC2)CC1 (configuration not stated) | 1150
COc1ccc2ncc(F)c(CCN3CCC(NCc4ccc5c(c4)CCO5)CC3)c2n1 | 677
CC(C)NCc1ccc(-c2ccc(CN3CCCC(c4ccccc4)C3)cc2)c(C(=O)NCC2CCCCC2)c1 (configuration not stated) | 722
CCCCCCN1CCCN(Cc2ccc(C(=O)Nc3ccc(F)c(F)c3)cc2)CC1 | 612
CC(C)(C)c1ccc2[nH]c(-c3ccc(C(=O)NCCCc4ccccc4)cc3)nc2c1 | 801
CC(C)NCc1ccc(-c2cccc(NC(=O)c3cccc(C#N)c3)c2)cc1 | 406
Cc1cc(N[C@@H](Cc2ccccc2)C(=O)NCc2cccc(F)c2)nc(NCCc2cccnc2)n1 | 1340
CC(C(=O)N1CCCC1)N1CCN(S(=O)(=O)c2ccc(C(C)(C)C)cc2)CC1 (configuration not stated) | 636
CN1C(=O)[C@H](NC(=O)[C@@H](Cc2ccccc2)NC(=S)Nc2ccccc2)N=C(c2ccccc2)c2ccccc21 | 855
Cc1ccc(CC(C)NCC(O)c2cccc(C(F)(F)F)c2)c(C)c1 (configuration not stated) | 703
O=C(Nc1cccc(-c2nc3ccccc3s2)c1)c1ccccc1[N+](=O)[O-] | 767
CC(=O)Nc1nc(C(=O)Nc2ccc(-c3cccc(-c4nc5ccccc5[nH]4)c3)cc2)cs1 | 552
CC(C)Cn1ncc2c3c(N)nc(N)nc3ccc21 | 159
COc1ccc2cc(-c3nc(-c4c(Cl)cccc4Cl)[nH]c3-c3ccnc(NCCCN4CCN(C)CC4)c3)ccc2c1 | 708
O=C(N[C@@H](Cc1ccccc1)CN1CCC(Oc2ccc(F)cc2)CC1)c1ccc(OCCCN2CCCCC2)cc1 | 885
CC(C)c1ccc(NS(=O)(=O)c2cccc(C(=O)NC3CCN(CC4CCCCC4)CC3)c2)cc1 | 1300

Structure (SMILES) | XC50 [nM]
CCCNCc1ccc(-c2ccc(CN(C(=O)c3nn(-c4ccccc4)nc3C)C3CCOCC3)cc2)nc1 | 144
Cc1ccc(NC(=O)c2ccc(CN3CCCN(CC4CCCCC4)CC3)cc2)cc1 | 797
CN(C)c1ccc(CN2CCC(CNC(=O)c3cc(-c4cccc(F)c4)cs3)C2)cc1 (configuration not stated) | 1020
COc1ccc(CC(Cc2ccc(OC)cc2)NCC(O)c2cccc(Cl)c2)cc1 (configuration not stated) | 155
Cc1cccc2nc(-c3cccc(-c4ccc(NC(=O)NCc5ccccc5)cc4)c3)[nH]c12 | 231
CCc1cccc2sc(N3CCN(C(=O)c4ccc([N+](=O)[O-])o4)CC3)nc12 | 773
Nc1ccnc(N2CCC(CCOc3cc(C(F)(F)F)nc4c(C(F)(F)F)cccc34)CC2)c1 | 792
Cn1nc(C(F)(F)F)c(-c2ccc(F)cc2)c1NC(=O)Nc1ccc(F)cc1F | 765
Cc1cc2nc(-c3ccc(C(=O)NCc4cccc(F)c4)cc3)[nH]c2cc1C | 962
COc1cccc(-c2c(C#N)c(N)nc3c2c(C)nn3-c2ccccc2)c1O | 282
N=C(N)c1ccc(C(=O)Nc2cccc(C(=N)N)c2)cc1 | 1040
C=CC[C@H](C[C@H](O)[C@H](Cc1ccccc1)NC(=O)c1nn(-c2ccccc2)nc1C)C(=O)NC1CCCCC1 | 915
CCc1cn2c3c(cc(C(=O)N[C@@H](Cc4ccccc4)[C@H](O)CNC4CCCC4)cc13)N(C)S(=O)(=O)CC2 | 46.9
CC[C@H](C)CNC(=O)c1ccnc(-c2cccc(CN(C)C3CCN(C)CC3)c2)c1 | 898
COc1ccc(C2C(C(=O)OC3CCCC3)=C(C)NC3=C2C(=O)CCC3)cc1Br (configuration not stated) | 593
c1cncc(CCNCc2ccc(-c3ccc(-c4nc5ccccc5[nH]4)s3)cc2)c1 | 213
Cc1noc(C)c1C(=O)N1CCCC(c2[nH]c3c(C)cccc3c2-c2ccncc2)C1 (configuration not stated) | 843
COc1ccccc1C1CCN(C2CCC(NC(=O)/C=C/c3cccc(C(F)(F)F)c3)CC2)CC1 (configuration not stated) | 806
CC(C)NCc1cccc(-c2ccc(NC(=O)c3cccc(C#N)c3)cc2)c1 | 324
COc1ccccc1C1CC(c2ccc(C)cc2)=NN1C(=O)c1ccccc1 (configuration not stated) | 886
CC1(C)OC[C@]2(C)[C@@H](CC[C@]3(C)C4=CC(=O)CCC4CC[C@@H]23)O1 (some centres not stated) | 282
COc1cc(-c2nc(C(C)(C)CN)[nH]c2-c2ccncc2)ccc1Br | 769
